Measurements taken from ChEMBL document CHEMBL1130930, “In vitro anti-human immunodeficiency virus (HIV) activity of the chromanone derivative, 12-oxocalanolide A, a novel NNRTI” (Bioorg Med Chem Lett, 1998).
Active and inactive are the calls of the source. The calls are words filed in the database; no cut-off is given here.

What was measured:
[1] = system: AA5; assay: (§1) Compound was evaluated for the anti-HIV activity against HIV strain IIIB in AA5 EBV-infected B-cell; type: functional, cell-based; conditions: Homo sapiens
[2] = system: CEM-SS; assay: Compound was evaluated for the antiviral activity against HIV-2 strain ROD in CEM-SS cells; type: functional, Homo sapiens
[3] = system: CEM-SS; assay: Compound was evaluated for the anti-HIV activity against HIV strain IIIB in CEM-SS Value was expressed as EC50; type: functional, cell-based; conditions: Homo sapiens
[4] = system: CEM-SS; assay: (§2) Compound was evaluated for the antiviral activity against HIV-1 strain IIIB in CEM-SS cells; type: functional, cell-based, Homo sapiens
[5] = system: CEM-SS; assay: Compound was evaluated for the antiviral activity against HIV-1 strain RF in CEM-SS cells; type: functional, cell-based, Homo sapiens
[6] = system: CEM-SS; assay: Compound was evaluated for the antiviral activity against HIV-1 strain SK1 in CEM-SS cells; type: functional, cell-based, Homo sapiens
[7] = system: CEM-SS; assay: Compound was evaluated for the antiviral activity against SIV delta in CEM-SS cells; type: functional, cell-based, Homo sapiens
[8] = system: CCRF-CEM; assay: Compound was evaluated for the anti-HIV activity against HIV strain SK1 in CEM-SS T-cells; type: functional, cell-based, Homo sapiens
[9] = system: Human immunodeficiency virus 1; assay: Compound was evaluated for the antiviral activity against compound resistant virus isolate M184I with amino acid changes in the HIV-1 reverse transcriptase (RT); type: functional, organism-based
[10] = system: Human immunodeficiency virus 1; assay: Compound was evaluated for the antiviral activity against compound resistant virus isolate P236L with amino acid changes in the HIV-1 reverse transcriptase (RT); type: functional, organism-based
[11] = system: Human immunodeficiency virus 1; assay: Compound was evaluated for the antiviral activity against compound resistant virus isolate Y181C with amino acid changes in the HIV-1 reverse transcriptase (RT); type: functional, organism-based
[12] = system: Human immunodeficiency virus 1; assay: Compound was evaluated for the antiviral activity against resistant virus isolate IIIB with amino acid changes in the HIV-1 reverse transcriptase (RT); type: functional, organism-based
[13] = system: Human immunodeficiency virus 1; assay: Compound was evaluated for the antiviral activity against compound resistant virus isolate 4 x AZT with amino acid changes in the HIV-1 reverse transcriptase (RT); type: functional, organism-based
[14] = system: Human immunodeficiency virus 1; assay: Compound was evaluated for the antiviral activity against compound resistant virus isolate K103N with amino acid changes in the HIV-1 reverse transcriptase (RT); type: functional, organism-based
[15] = Compound was evaluated for the anti-HIV activity against HIV strain BaL in monocyte; type: functional; conditions: Homo sapiens
[16] = system: MT2; assay: Compound was evaluated for the anti-HIV activity against HIV strain IIIB in MT2 T-cells; type: functional, cell-based, Homo sapiens
[17] = species on record: Homo sapiens; assay: Compound was evaluated for the anti-HIV activity against HIV strain ADA in monocyte macrophages; type: functional, organism-based
[18] = species on record: Homo sapiens; assay: Compound was evaluated for the anti-HIV activity against HIV strain TEKI in fresh peripheral blood mononuclear cell (PBMC). Value was expressed as EC50; type: functional, organism-based
[19] = species on record: Homo sapiens; assay: Compound was evaluated for the anti-HIV activity against HIV strain ROJO in fresh peripheral blood mononuclear cell (PBMC); type: functional, organism-based
[20] = system: U-937; assay: (§3) Compound was evaluated for the anti-HIV activity against HIV strain IIIB in U937 monocytic cell; type: functional, cell-based; conditions: Homo sapiens
[21] = Therapeutic index against HIV-1 strain IIIB in CEM-SS cells was expressed as IC50/EC50; type: cell-based, Human immunodeficiency virus 1; conditions: for TI: human immunodeficiency virus 1, cem-ss
[22] = Therapeutic index against HIV-1 strain RF in CEM-SS cells was expressed as IC50/EC50; type: organism-based, Human immunodeficiency virus 1; conditions: for TI: human immunodeficiency virus 1, cem-ss
[23] = Therapeutic index against HIV-1 strain SK1 in CEM-SS cells was expressed as IC50/EC50; type: cell-based, Human immunodeficiency virus 1; conditions: for TI: human immunodeficiency virus 1, cem-ss; for selectivity ratio: human immunodeficiency virus 1, CEM-SS cells infected with HIV-1 strain SK1, read-out: TI
[24] = Therapeutic index against SIV delta in CEM-SS cells was expressed as IC50/EC50; type: cell-based; conditions: simian immunodeficiency virus; for TI: cem-ss
[25] = system: Human immunodeficiency virus 1; assay: Compound was evaluated for the antiviral activity against compound resistant virus isolate K101E with amino acid changes in the HIV-1 reverse transcriptase (RT); type: functional, organism-based
[26] = system: B-cell; assay: as §1; type: functional, cell-based; conditions: Homo sapiens
[27] = system: CCRF-CEM; assay: Compound was evaluated for the anti-HIV activity against HIV strain IIIB in CEM-SS T-cells; type: functional, cell-based; conditions: Homo sapiens
[28] = system: CCRF-CEM; assay: Compound was evaluated for the anti-HIV activity against HIV strain IIIB in 174 x CEM T-cell:B-cell fusion; type: functional, cell-based; conditions: Homo sapiens
[29] = system: Human immunodeficiency virus 1; assay: Compound was evaluated for the antiviral activity against compound resistant virus isolate L100I with amino acid changes in the HIV-1 reverse transcriptase (RT); type: functional, organism-based
[30] = system: Human immunodeficiency virus 1; assay: Compound was evaluated for the antiviral activity against compound resistant virus isolate T1391 with amino acid changes in the HIV-1 reverse transcriptase (RT); type: functional, organism-based
[31] = system: Human immunodeficiency virus 1; assay: Compound was evaluated for the antiviral activity against compound resistant virus isolate V1081 with amino acid changes in the HIV-1 reverse transcriptase (RT); type: functional, organism-based
[32] = system: Human immunodeficiency virus 1; assay: Compound was evaluated for the antiviral activity against compound resistant virus isolate Y181C/K103N with amino acid changes in the HIV-1 reverse transcriptase (RT); type: functional, organism-based
[33] = system: Human immunodeficiency virus 1; assay: Compound was evaluated for the antiviral activity against compound resistant virus isolate Y188H with amino acid changes in the HIV-1 reverse transcriptase (RT); type: functional, organism-based
[34] = species on record: Homo sapiens; assay: Compound was evaluated for the anti-HIV activity against HIV strain BaL in monocyte macrophages; type: functional, organism-based
[35] = species on record: Homo sapiens; assay: Compound was evaluated for the anti-HIV activity against HIV strain TEKI in fresh peripheral blood mononuclear cell (PBMC); type: functional, organism-based
[36] = as §3; type: functional, cell-based; conditions: Homo sapiens, U-937
[37] = Therapeutic index against HIV-2 strain ROD in CEM-SS cells was expressed as IC50/EC50; type: organism-based; conditions: human immunodeficiency virus 2, CEM-SS cells infected with HIV-2 strain ROD; read-out: TI
[38] = system: CEM-SS; assay: Compound was evaluated for the antiviral activity against HIV-1 strain SK1 in CEM-SS cells; IA: Inactive; type: functional, cell-based; conditions: Homo sapiens
[39] = system: CEM-SS; assay: as §2; type: functional; conditions: Homo sapiens
[40] = system: Human immunodeficiency virus 1; assay: Compound was evaluated for the antiviral activity against compound resistant virus isolate K103E with amino acid changes in the HIV-1 reverse transcriptase (RT)

CCCc1cc(=O)oc2c3c(c4c(c12)OC(C)(C)C=C4)O[C@H](C)[C@@H](C)C3=O (racemic)
EC50 [1]: 2800 nM | EC25 [2]: 5.57 µM | IC25 [2]: 13.8 µM | EC50 [3]: 520 nM | EC50 ([4]; cem-ss): 510 nM | IC50 ([4]; cem-ss): 5.6 µM | EC50 ([5]; cem-ss): 400 nM | IC50 ([5]; cem-ss): 5.8 µM | IC50 ([6]; cem-ss): 6.3 µM | IC50 ([7]; cem-ss): 6.6 µM | EC50 [8]: 270 nM | EC50 [9]: 530 nM | EC50 [10]: 2030 nM | EC50 [11]: 590 nM | EC50 [12]: 320 nM | EC50 [13]: 3600 nM | EC50 [14]: > 100 µM | EC50 [15]: 510 nM | EC50 [16]: 560 nM | EC50 [17]: 330 nM | EC50 [18]: > 10 µM | EC50 [19]: 2180 nM | EC50 [20]: 3000 nM | TI [21]: 11 | TI [22]: 14 | TI [23]: 37 | TI [24]: 5 | EC50 [25]: > 100 µM

CCCc1cc(=O)oc2c3c(c4c(c12)OC(C)(C)C=C4)O[C@H](C)[C@@H](C)C3=O (stereo in doubt; (+)-2)
EC50 [26]: > 10 µM | EC25 [2]: 15.9 µM | IC25 [2]: 34.8 µM | EC50 ([4]; cem-ss): 1000 nM | EC50 ([5]; cem-ss): 900 nM | EC50 ([6]; cem-ss): 170 nM | EC50 ([7]; cem-ss): 1660 nM | EC50 [27]: 1090 nM | EC50 [8]: 620 nM | EC50 [28]: > 10 µM | EC50 [29]: > 100 µM | EC50 [9]: 60500 nM | EC50 [10]: 6760 nM | EC50 [30]: > 100000 nM | EC50 [31]: > 100 µM | EC50 [11]: 2100 nM | EC50 [32]: 6.19 µM | EC50 [33]: > 100 µM | EC50 [12]: 1470 nM | EC50 ([13]; Human immunodeficiency virus 1): 2730 nM | EC50 [14]: 30.6 µM | EC50 [16]: 2620 nM | EC50 [17]: 1760 nM | EC50 [34]: 2190 nM | EC50 [35]: > 10 µM | EC50 ([19]; Homo sapiens): 2660 nM | EC50 [36]: > 10 µM | TI [21]: > 10 | TI [22]: > 11 | TI [23]: > 58 | selectivity ratio [37]: 2 | TI [24]: 6 | EC50 [25]: 26.4 µM

CCCc1cc(=O)oc2c3c(c4c(c12)OC(C)(C)C=C4)O[C@H](C)[C@@H](C)C3=O (stereo in doubt; (-)-2)
IC50 ([4]; Homo sapiens, CEM-SS): > 10 µM | EC50 ([4]; cem-ss): 1880 nM | IC50 ([5]; Homo sapiens, CEM-SS): > 10 µM | EC50 ([5]; cem-ss): 3410 nM | EC50 ([6]; Homo sapiens, CEM-SS): 270 nM | IC50 ([6]; Homo sapiens, CEM-SS): > 10 µM | IC50 ([7]; Homo sapiens, CEM-SS): > 10 µM | EC50 ([7]; cem-ss): 6120 nM | TI [21]: > 5 | TI [22]: > 3 | selectivity ratio [23]: > 37 | TI [24]: 2

CCCc1cc(=O)oc2c3c(c4c(c12)OC(C)(C)C=C4)O[C@H](C)[C@@H](C)[C@@H]3O [CALANOLIDE A]
EC25 [38]: inactive | EC50 ([4]; Homo sapiens, CEM-SS): 140 nM | EC50 ([5]; cem-ss): 170 nM

Nc1ccn([C@H]2CC[C@@H](CO)O2)c(=O)n1 [ZALCITABINE]
EC25 ([2]; Homo sapiens, CEM-SS, read-out: EC25): 0.03 µM | IC25 ([2]; Homo sapiens, CEM-SS, read-out: IC25): > 10 µM | EC50 ([4]; Homo sapiens, CEM-SS): 20 nM | EC50 ([5]; Homo sapiens, CEM-SS): 50 nM | IC50 ([5]; Homo sapiens, CEM-SS): > 5 µM | EC50 ([6]; Homo sapiens, CEM-SS): 50 nM | IC50 ([6]; Homo sapiens, CEM-SS): > 5 µM | EC50 ([7]; Homo sapiens, CEM-SS): 190 nM | IC50 ([7]; Homo sapiens, CEM-SS): > 5 µM | EC25 [39]: > 5 µM | selectivity ratio ([21]; human immunodeficiency virus 1, CEM-SS cells infected with HIV-1 strain IIIB, read-out: TI): > 250 | selectivity ratio ([22]; human immunodeficiency virus 1, CEM-SS cells infected with HIV-1 strain RF, read-out: TI): > 100 | selectivity ratio [23]: > 100 | selectivity ratio [37]: > 333 | selectivity ratio ([24]; CEM-SS cells infected with SIV delta, read-out: TI): > 26

Cc1cn([C@H]2C[C@H](N=[N+]=[N-])[C@@H](CO)O2)c(=O)[nH]c1=O [ZIDOVUDINE]
EC50 [29]: < 0.003 µM | EC50 ([9]; Human immunodeficiency virus 1): 10 nM | EC50 ([10]; Human immunodeficiency virus 1): […] | EC50 [30]: 40 nM | EC50 ([11]; Human immunodeficiency virus 1): 6 nM | EC50 [32]: < 0.03 µM | EC50 [33]: < 0.003 µM | EC50 ([12]; Human immunodeficiency virus 1): 9 nM | EC50 ([13]; Human immunodeficiency virus 1): > 1000 nM | EC50 [40]: 4 nM
